From article PMC5893132, “Selective inhibition of histamine-evoked Ca^2+ signals by compartmentalized cAMP in human bronchial airway smooth muscle cells” (Cell Calcium, 2018) come the findings set out here.

Structures can show the parent of a compound that is named as a salt.

Common to all, as to format: cell-based, human
Assay [1] has as its system intracellular Ca^2+ stores of hBASMCs. The assay can be described thus: Ca2+ content of intracellular stores, by ionomycin in Ca2+-free HBS. The conditions noted are these: isoproterenol, forskolin 10 μM, 5 min, 2-APB 5 min, higher concentrations needed than for inhibition of GPCR-evoked signals.
The test system of assay [2] is histamine-evoked Ca^2+ signals in hBASMCs. The assay can be described thus: Histamine-evoked Ca2+ signals in populations of fluo-4-loaded hBASMCs. The conditions noted are these: HBSS. The essentials:
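Serum-starved hBASMCs loaded with fluo-4-AM (2 μM, or FLIPR calcium 4 kit) with probenecid 2.5 mM; recordings at 20 °C in HEPES-buffered saline pH 7.3, sometimes Ca²⁺-free or with BAPTA. Fluorescence calibrated to [Ca²⁺]i (KD 345 nM); one concentration per well, logistic fits giving EC50, maximal response, Hill slope.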

Assay [3] deals with intracellular cAMP in hBASMCs. In words: Intracellular cAMP in hBASMCs by [3H]-adenine labeling. The conditions noted are these: isoproterenol 10 μM, sustained incubation; [3H]-adenine labeling. Here is the method: hBASMCs in 24-well plates (50,000 cells per well) were grown to confluence. The medium was then replaced with serum-free SMGM-2, and after 24 h this was supplemented with [^3H]-adenine (1 μCi per well, 18.4 Ci·mmol^−1). After 2 h at 37 °C in humidified air with 5% CO2, the medium was removed, and the cells were washed twice with HBS. The cells were stimulated at 20 °C in HBS. Incubations were terminated by removal of the medium, addition of ice-cold trichloroacetic acid (5%, 1 mL) and rapid freezing. This protocol ensured that only intracellular [^3H]-cAMP was detected. [^3H]-adenine nucleotides were separated by column chromatography, and the activity was determined by liquid scintillation counting using Ultra-gold scintillant. Results are presented as [^3H]-cAMP activity as a percentage of the sum of the activities of the fractions containing [^3H]-cAMP, [^3H]-ATP, [^3H]-ADP and [^3H]-AMP; henceforth, reported as [^3H]-cAMP (%).

Regarding `CC(C)NC[C@H](O)c1ccc(O)c(O)c1` [isoproterenol, (−)-isoproterenol hydrochloride], the “effect on the Ca2+ content of the intracellular stores” value in assay [1] is reported as “Neither isoproterenol nor forskolin (10 μM, 5 min) affected”. In assay [2] (Homo sapiens, added 5 min before histamine 10 μM, n = 4, read-out: pIC50 for inhibition of histamine-evoked Ca2+ signals (converted)), the IC50 is 8.13 nM. For the same compound, the “maximal amplitude of the peak increase in [Ca2+]i evoked by histamine after pre-treatment” value in assay [2] (after isoproterenol 10 μM, 5 min, n = 7, control 242 ± 15 nM) was determined as 168 ± 19 nM. The “stimulated cAMP concentration after 30 min relative to after 1 min” value in assay [3] is given as 2.8 fold.
